# US10035810B2, “5,6-dihydro-4H-benzo[b]thieno-[2,3-d]azepine derivative” (PULMOCIDE LIMITED, priority 2014, dated 2018)
# Columns and labels:
# RSV A2 F-protein = experiment: RSV F protein expression in BEAS2B bronchial epithelial cells; type: cell-based; conditions: human respiratory syncytial virus, BEAS-2B, 72 h, read-out: RSV A2 F-protein IC50
# Description: Assessment of RSV F Protein Expression in BEAS2B Bronchial Epithelial Cells
# An early event which follows the infection of epithelial cells by RSV is the expression of RSV F-protein on the cells' surface. BEAS2B cells (SV40-immortalised human bronchial epithelial cell line) were grown in 96 well plates. Once more than 70% confluent, cells were infected with RSV A2 (#0709161v, NCPV, Public Health England, Wiltshire) at an MOI of 0.01 in clear RPMI-1640 medium (Life technologies, Paisley, UK) with 2% FBS (Life technologies, Paisley, UK), and incubated for 3 days (37° C./5% CO2).
# Supernatant was aspirated and the cells were fixed with 4% formaldehyde (100 μL in PBS solution) for 20 min, washed 3 times with washing buffer (200 μL; PBS containing 0.05% Tween-20) and incubated with blocking solution (100 μL; 5% Marvel milk in PBS) for 1 hr. […] The resultant signal was determined colourimetrically (OD: 450 nm with a reference wavelength of 655 nm) in a microplate reader (Multiskan FC®, ThermoFisher Scientific). […] After washing with PBS (200 μL) three times, 1% SDS (100 μL) was added to each well, and plates were shaken lightly for 1 hr prior to reading the absorbance at 595 nm. The measured OD450-655 readings were corrected for cell number by dividing the OD450-655 by the OD595 readings. […]
# HEp2 cells = experiment: Cell viability: resazurin assay; type: cell-based, human; conditions: incubation with compound
# Description: Cell Viability: Resazurin Assay
# HEp2 cells were seeded in 384-well plates (10^3/well/50 μL; BD Falcon Ref 353962) in FBS DMEM (5%, containing 2 mM L-glutamine and 1 mM sodium pyruvate) one day before experimentation. Serum-free DMEM (50 μL) was added to test wells while for control wells the media was removed and sterile water (100 μL) was added. Compound (I) (0.5 μL DMSO solution) was added to give a final DMSO concentration of 0.5%. Hep2 cells were incubated with each test compound for 5 days (37° C./5% CO2 in 5% FBS) and then resazurin stock solution (5 μL; 0.03%) was added to each well and the plate incubated for a further 6 hr (37° C./5% CO2). The fluorescence of each well at 545 nm (excitation) and 590 nm (emission) was determined using a multi-scanner (Clariostar: BMG Labtech). The percentage loss of cell viability was calculated for each well relative to vehicle (0.5% DMSO) treatment.
# Any apparent increase in cell viability associated with test compound treatment relative to vehicle is consequently tabulated as a negative percentage. Where appropriate, a CC50 value was calculated from the concentration-response curve generated for Compound (I).
# [1] = system: RSV NS-1 gene transcripts; experiment: RSV infection in cotton rats: RSV NS-1 gene transcript in lung (qRT-PCR); type: in vivo, cotton rats (Sigmodon hispidus); conditions: infected cotton rats
# Description: RSV Infection in Cotton Rats
# Male Sigmodon hispidus cotton rats between 6 and 8 weeks of age were infected with hRSV/A/Long (ATCC, Manassas, Va.; 10^5 pfu) in a volume of 0.1 mL of sucrose stabilizing media. Compound (I) was dissolved in 100% DMSO (at 3.3, 10, 33 and 100 mg/mL), then diluted at 1:10 in isotonic saline to achieve 10% DMSO in all treatments. Formulations were then sonicated to produce suspensions. The resulting suspensions were administered intranasally (50 μL) by pipette 4 hr before infection (on day 0), and then on days 1, 2 and 3 post infection. Four days after RSV challenge, the animals were euthanised and the lungs were removed. The left lobe was used for viral titration via plaque assay and the lingular lobe for RSV/A/Long NS-1 qRT-PCR and cytokine qRT-PCR.
# Total RNA was also extracted from homogenized lung tissue (RNeasy purification kit; Qiagen) and a sample (1 μg) was used to prepare cDNA using QuantiTect Reverse Transcription Kit (Qiagen). For real-time PCR reactions (RSV NS-1 and RANTES genes) the QuantiFast SYBR® Green PCR Kit (Qiagen) was used in a final volume of 25 μL, with final primer concentrations of 0.5 μM. […] Baseline cycles and cycle threshold (Ct) were calculated by the iQ5 software in the PCR Base Line Subtracted Curve Fit mode. […] The mRNA levels were expressed as the geometric mean±SEM for all animals in a group.
smiles,measurement,setting,value
"Cc1cnc(N2CC3(CCOCC3)C2)c(C(=O)Nc2ccc(C(=O)N3CCc4cc(C(=O)Nc5c(C)cccc5F)sc4-c4ccccc43)cc2)c1 [Compound (I), N-(2-fluoro-6-methylphenyl)-6-(4-(5-methyl-2-(7-oxa-2-azaspiro[3.5]nonan-2-yl)nicotinamido)benzoyl)-5,6-dihydro-4H-benzo[b]thieno[2,3-d]azepine-2-carboxamide]",IC50,RSV A2 F-protein,0.17 nM
same,Effect on cell viability (in words),HEp2 cells,No effect on cell viability
same,RSV NS-1 gene transcripts in lung (in words),[1],dose-dependent inhibition of RSV NS-1 gene transcripts
